Earlier results as cited in patent publication US20210135109A1, “ACCELERATED THERMAL CROSSLINKING OF PVDF-HFP VIA ADDITION OF ORGANIC BASES, AND THE USAGE OF CROSSLINKED PVDF-HFP AS GATE DIELECTRIC MATERIAL FOR OTFT DEVICES” (priority 2017, published 2021).

Conditions: water (measured in water unless otherwise specified)

pKa (25° C., 1 atm): 10.92 ± 0.10
SMILES: NCCCCCCN [HMDA, Hexamethylenediamine]
